In patent US20100285959A1, “HERBICIDAL MIXTURES” (priority 2006, published 2010):

Experiments:
[1] = test system: common lambsquarters (CHEAL); assay: Test 22 growth chamber, postemergence; assay type: in vivo, Chenopodium album; settings: 25 DAA
Protocol: (§1) A test was conducted to evaluate the effects on winter barley (HORVW, Hordeum vulgare L.), winter wheat (TRZAW, Triticum aestivum L.), and several weed species of mixtures of Compound 2 with the commercial herbicides (2,4-dichlorophenoxy)acetic acid (2,4-D) and (4-chloro-2-methylphenoxy)acetic acid (MCPA), auxin mimics. […] Plants were treated postemergence at the 2-4 leaf growth stage, except KCHSC, SASKR and STEME which were in the 4-8 leaf growth stage. Each treatment was replicated one time. […] Plants were watered as needed. […] Results are from single replicates.

wild mustard (SINAR) = assay: Test 22 growth chamber, postemergence; assay type: in vivo, Sinapis arvensis; settings: 25 DAA
Protocol: as §1

common chickweed (STEME) [2] = assay: Test 22 growth chamber, postemergence; assay type: in vivo, Stellaria media; settings: 25 DAA
Protocol: as §1

winter wheat (TRZAW) = assay: Test 23 growth chamber, postemergence; assay type: in vivo, Triticum aestivum; settings: 21 DAA
Protocol: (§2) A test was conducted to evaluate the effects on winter barley (HORVW, Hordeum vulgare L.), winter wheat (TRZAW, Triticum aestivum L.), and several weed species of mixtures of Compound 2 with the commercial herbicides (2,4-dichlorophenoxy)acetic acid (2,4-D) and (4-chloro-2-methylphenoxy)acetic acid (MCPA), auxin mimics. […] Plants were treated postemergence at the 2-4 leaf growth stage, and each treatment was replicated three times. […] Plants were watered as needed. […] Results are means of the three replicates.

galium (GALAP) = assay: Test 23 growth chamber, postemergence; assay type: in vivo, Galium aparine; settings: 21 DAA
Protocol: as §2

field poppy (PAPRH) = assay: Test 23 growth chamber, postemergence; assay type: in vivo, Papaver rhoeas; settings: 21 DAA
Protocol: as §2

Russian thistle (SASKR) = assay: Test 23 growth chamber, postemergence; assay type: in vivo, Salsola kali; settings: 21 DAA
Protocol: as §2

common chickweed (STEME) [3] = assay: Test 23 growth chamber, postemergence; assay type: in vivo, Stellaria media; settings: 21 DAA
Protocol: as §2

[4] = test system: broadleaf buttonweed (BOILF); assay: Test 12 field trial, preemergence; assay type: in vivo, Borreria latifolia; set-up: scale not given here; settings: Cpd 2 or Cpd 1 62 g a.i./ha, Diuron 2000 g a.i./ha
Text: (§3) In early-mid spring season, corn seeds (hybrid ‘Pioneer 3041’) were planted 5 cm deep and sugarcane nodes (variety RB-72.454) were planted 10 cm deep in separate plots in a clay soil having 2.6% organic matter and a pH of 5.6. Plots were 24 m long by 1.5 m wide with rows spaced 80 cm (corn) or 140 cm (sugarcane) apart. Corn seeds were spaced 15 cm apart and sugarcane nodes were spaced 10 cm apart within the rows. At the same time, weed seeds were broadcast over the surface of separate plots without a crop, one weed species per plot. The weed plots were rotary tilled to incorporate the weed seeds to a variety of depths. The field was managed using conventional tillage practices.

sicklepod (CASOB) = assay: Test 12 field trial, preemergence; assay type: in vivo, Cassia obtusifolia; set-up: scale not given here; settings: Cpd 2 or Cpd 1 62 g a.i./ha, Diuron 2000 g a.i./ha
Text: as §3

arrowleaf sida (SIDRH) = assay: Test 12 field trial, preemergence; assay type: in vivo, Sida rhombifolia; set-up: scale not given here; settings: Cpd 2 or Cpd 1 62 g a.i./ha, Diuron 2000 g a.i./ha
Text: as §3

annual grasses (GGGAN) = assay: Test 7 field trial, preemergence; assay type: in vivo, Gramineae
Protocol: (§4) Plots were 7.6 m long by 3.0 m wide with rows spaced 76 cm apart. Seeds were spaced 15 cm apart within the rows. The field was managed using conventional tillage practices. […] Wild radish was evaluated 14 and 28 days after application. […] Results are the means of the three replicates.

[5] = test system: Pennsylvania smartweed (POLPY); assay: Test 7 field trial, preemergence; assay type: in vivo, Polygonum pensylvanicum
Protocol: as §4

corn (ZEAMD) = assay: Test 9 field trial, emerged weeds before corn planting; assay type: in vivo, Zea mays ssp. indentata; settings: 57 DAA; g a.i./ha: Cpd 2 100, Glyphosate 1540, Paraquat 1150
Protocol: (§5) Corn seeds (hybrid ‘Pioneer 34M91 RR’) were planted in mid spring season, about 3.8 cm deep in a silty clay loam soil having a pH of 6.7. Plots were 9.1 m long by 3.0 m. The field was managed using no-till practices. […] Compound 2 and paraquat treatments, alone and in combination, also included a surfactant. Glyphosate, alone and with Compound 2, included ammonium sulfate in the treatment mixture. […] The effects on the weeds in the treated plots and untreated control plots were recorded 7, 14, 23, 30 and 57 days after application. Most of the weed species could not be evaluated at every timing. Corn response was only evaluated 57 days after application. […] Results are the means of the three replicates.

Canada horseweed (ERICA) = assay: as above; assay type: in vivo, Erigeron canadensis; settings: g a.i./ha: Cpd 2 100, Glyphosate 1540, Paraquat 1150
Protocol: as §5

bushy wallflower (ERYRE) = assay: as above; assay type: in vivo, Erysimum repandum; settings: g a.i./ha: Cpd 2 100, Glyphosate 1540, Paraquat 1150
Protocol: as §5

[6] = 2,4-D or MCPA alone 250 g a.i./ha

## O=C(O)COc1ccc(Cl)cc1Cl [2,4-D, (2,4-dichlorophenoxy)acetic acid]
[1]; [6]
  Postemergence CHEAL Obs: 60
Wild mustard (SINAR); [6]
  Postemergence SINAR Obs: 75
Common chickweed (STEME) [2]; [6]
  Postemergence STEME Obs: 55
Winter wheat (TRZAW); [6]
  Postemergence TRZAW Obs: 20
Galium (GALAP); [6]
  Postemergence GALAP Obs: 33
Field poppy (PAPRH); [6]
  Postemergence PAPRH Obs: 52
Russian thistle (SASKR); [6]
  Postemergence SASKR Obs: 63
Common chickweed (STEME) [3]; [6]
  Postemergence STEME Obs: 65

## Nc1nc(C2CC2)nc(C(=O)O)c1Cl [Compound 1, 6-amino-5-chloro-2-cyclopropyl-4-pyrimidinecarboxylic acid]
[4]; 15 DAA
  BOILF Obs: 70
[4]; 29 DAA
  BOILF Obs: 60
[4]; 48 DAA
  BOILF Obs: 95
[4]; 61 DAA
  BOILF Obs: 95
Sicklepod (CASOB); 15 DAA
  CASOB Obs: 60
Sicklepod (CASOB); 29 DAA
  CASOB Obs: 70
Sicklepod (CASOB); 48 DAA
  CASOB Obs: 90
Sicklepod (CASOB); 61 DAA
  CASOB Obs: 90
Arrowleaf sida (SIDRH); 15 DAA
  SIDRH Obs: 60
Arrowleaf sida (SIDRH); 29 DAA
  SIDRH Obs: 95
Arrowleaf sida (SIDRH); 48 DAA
  SIDRH Obs: 100
Arrowleaf sida (SIDRH); 61 DAA
  SIDRH Obs: 95

## COC(=O)c1nc(C2CC2)nc(N)c1Cl [Compound 2, methyl 6-amino-5-chloro-2-cyclopropyl-4-pyrimidinecarboxylate]
Annual grasses (GGGAN); 14 DAA, 125 g a.i./ha
  GGGAN Obs: 33%
Annual grasses (GGGAN); 14 DAA, 250 g a.i./ha
  GGGAN Obs: 65%
Annual grasses (GGGAN); 14 DAA, 500 g a.i./ha
  GGGAN Obs: 67%
Annual grasses (GGGAN); 28 DAA, 125 g a.i./ha
  GGGAN Obs: 33%
Annual grasses (GGGAN); 28 DAA, 250 g a.i./ha
  GGGAN Obs: 48%
Annual grasses (GGGAN); 28 DAA, 500 g a.i./ha
  GGGAN Obs: 52%
Annual grasses (GGGAN); 62 DAA, 125 g a.i./ha
  GGGAN Obs: 0%
Annual grasses (GGGAN); 62 DAA, 250 g a.i./ha
  GGGAN Obs: 0%
Annual grasses (GGGAN); 62 DAA, 500 g a.i./ha
  GGGAN Obs: 0%
[5]; 14 DAA, 125 g a.i./ha
  POLPY Obs: 77%
[5]; 14 DAA, 250 g a.i./ha
  POLPY Obs: 95%
[5]; 14 DAA, 500 g a.i./ha
  POLPY Obs: 97%
[5]; 28 DAA, 125 g a.i./ha
  POLPY Obs: 70%
[5]; 28 DAA, 250 g a.i./ha
  POLPY Obs: 93%
[5]; 28 DAA, 500 g a.i./ha
  POLPY Obs: 97%
[5]; 62 DAA, 125 g a.i./ha
  POLPY Obs: 40%
[5]; 62 DAA, 500 g a.i./ha
  POLPY Obs: 100%
Corn (ZEAMD)
  ZEAMD Obs: 0%
Canada horseweed (ERICA); 7 DAA
  ERICA Obs: 62%
Canada horseweed (ERICA); 14 DAA
  ERICA Obs: 68%
Canada horseweed (ERICA); 23 DAA
  ERICA Obs: 75%
Canada horseweed (ERICA); 30 DAA
  ERICA Obs: 83%
Canada horseweed (ERICA); 57 DAA
  ERICA Obs: 100%
Bushy wallflower (ERYRE); 7 DAA
  ERYRE Obs: 20%
Bushy wallflower (ERYRE); 14 DAA
  ERYRE Obs: 3%
Bushy wallflower (ERYRE); 23 DAA
  ERYRE Obs: 3%
Bushy wallflower (ERYRE); 30 DAA
  ERYRE Obs: 0%
Bushy wallflower (ERYRE); 57 DAA
  ERYRE Obs: 0%
[4]; 15 DAA
  BOILF Obs: 70
[4]; 29 DAA
  BOILF Obs: 60
[4]; 48 DAA
  BOILF Obs: 95
[4]; 61 DAA
  BOILF Obs: 100
Sicklepod (CASOB); 15 DAA
  CASOB Obs: 60
Sicklepod (CASOB); 29 DAA
  CASOB Obs: 80
Sicklepod (CASOB); 48 DAA
  CASOB Obs: 60
Sicklepod (CASOB); 61 DAA
  CASOB Obs: 50
Arrowleaf sida (SIDRH); 15 DAA
  SIDRH Obs: 40
Arrowleaf sida (SIDRH); 29 DAA
  SIDRH Obs: 90
Arrowleaf sida (SIDRH); 48 DAA
  SIDRH Obs: 70
Arrowleaf sida (SIDRH); 61 DAA
  SIDRH Obs: 60
[1]; Cpd 2 alone 4 g a.i./ha
  Postemergence CHEAL Obs: 50
[1]; Cpd 2 alone 8 g a.i./ha
  Postemergence CHEAL Obs: 50
[1]; Cpd 2 alone 16 g a.i./ha
  Postemergence CHEAL Obs: 65
Wild mustard (SINAR); Cpd 2 alone 4 g a.i./ha
  Postemergence SINAR Obs: 60
Wild mustard (SINAR); Cpd 2 alone 8 g a.i./ha
  Postemergence SINAR Obs: 65
Wild mustard (SINAR); Cpd 2 alone 16 g a.i./ha
  Postemergence SINAR Obs: 65
Common chickweed (STEME) [2]; Cpd 2 alone 4 g a.i./ha
  Postemergence STEME Obs: 50
Common chickweed (STEME) [2]; Cpd 2 alone 8 g a.i./ha
  Postemergence STEME Obs: 50
Common chickweed (STEME) [2]; Cpd 2 alone 16 g a.i./ha
  Postemergence STEME Obs: 55
Winter wheat (TRZAW); Cpd 2 alone 4 g a.i./ha
  Postemergence TRZAW Obs: 35
Winter wheat (TRZAW); Cpd 2 alone 8 g a.i./ha
  Postemergence TRZAW Obs: 38
Winter wheat (TRZAW); Cpd 2 alone 16 g a.i./ha
  Postemergence TRZAW Obs: 43
Galium (GALAP); Cpd 2 alone 4 g a.i./ha
  Postemergence GALAP Obs: 60
Galium (GALAP); Cpd 2 alone 8 g a.i./ha
  Postemergence GALAP Obs: 72
Galium (GALAP); Cpd 2 alone 16 g a.i./ha
  Postemergence GALAP Obs: 80
Field poppy (PAPRH); Cpd 2 alone 4 g a.i./ha
  Postemergence PAPRH Obs: 53
Field poppy (PAPRH); Cpd 2 alone 8 g a.i./ha
  Postemergence PAPRH Obs: 58
Field poppy (PAPRH); Cpd 2 alone 16 g a.i./ha
  Postemergence PAPRH Obs: 72
Russian thistle (SASKR); Cpd 2 alone 4 g a.i./ha
  Postemergence SASKR Obs: 55
Russian thistle (SASKR); Cpd 2 alone 8 g a.i./ha
  Postemergence SASKR Obs: 63
Russian thistle (SASKR); Cpd 2 alone 16 g a.i./ha
  Postemergence SASKR Obs: 72
Common chickweed (STEME) [3]; Cpd 2 alone 4 g a.i./ha
  Postemergence STEME Obs: 55
Common chickweed (STEME) [3]; Cpd 2 alone 8 g a.i./ha
  Postemergence STEME Obs: 58
Common chickweed (STEME) [3]; Cpd 2 alone 16 g a.i./ha
  Postemergence STEME Obs: 67

## O=C(O)CNCP(=O)(O)O [Glyphosate]
Corn (ZEAMD)
  ZEAMD Obs: 0%
Canada horseweed (ERICA); 7 DAA
  ERICA Obs: 45%
Canada horseweed (ERICA); 14 DAA
  ERICA Obs: 76%
Canada horseweed (ERICA); 23 DAA
  ERICA Obs: 98%
Canada horseweed (ERICA); 30 DAA
  ERICA Obs: 100%
Canada horseweed (ERICA); 57 DAA
  ERICA Obs: 84%
Bushy wallflower (ERYRE); 7 DAA
  ERYRE Obs: 63%
Bushy wallflower (ERYRE); 14 DAA
  ERYRE Obs: 74%
Bushy wallflower (ERYRE); 23 DAA
  ERYRE Obs: 89%
Bushy wallflower (ERYRE); 30 DAA
  ERYRE Obs: 100%
Bushy wallflower (ERYRE); 57 DAA
  ERYRE Obs: 100%

## CCc1cccc(C)c1N(C(=O)CCl)[C@@H](C)COC [S-Metolachlor, S-metolachlor, reference compound]
Annual grasses (GGGAN); 14 DAA, 1000 g a.i./ha
  GGGAN Obs: 97%
Annual grasses (GGGAN); 28 DAA, 1000 g a.i./ha
  GGGAN Obs: 93%
Annual grasses (GGGAN); 62 DAA, 1000 g a.i./ha
  GGGAN Obs: 75%
[5]; 14 DAA, 1000 g a.i./ha
  POLPY Obs: 60%
[5]; 28 DAA, 1000 g a.i./ha
  POLPY Obs: 45%
[5]; 62 DAA, 1000 g a.i./ha
  POLPY Obs: 10%
